Earlier results on one compound are cited in patent US10052384B2, “Liquid antiseptic compositions containing iodine and a sugar and/or sugar alcohol” (3M INNOVATIVE PROPERTIES COMPANY, priority 2007, dated 2018).

The conditions of the data set: 25° C.

Take `II` [elemental iodine]: the Solubility in water is listed as 0.03 wt-%.
